Source: the supplement of paper PMC10307832

How the values were obtained:
Test in all cases: relative viability (nuclei count vs DMSO), 5 days (fraction); higher = more cells survive
Vemurafenib = compound: CCCS(=O)(=O)Nc1ccc(F)c(C(=O)c2c[nH]c3ncc(-c4ccc(Cl)cc4)cc23)c1F [Vemurafenib]
Summary of the method: (§1)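 Only plates meeting two conditions passed: control CV below 25% and at least one doubling. Lung cancer cell lines, kept overnight at 37 °C in 1536-well plates, were pinned with five library-drug doses (not always all listed) √10 apart on vehicle-anchored plates and grown 5 days without medium change. A one-step fix, permeabilisation and Hoechst stain preceded 4× imaging and MetaXpress nuclear counting. Viability equals treated-well nuclei divided by vehicle-well nuclei, as the median over plates.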

OSI-027 = compound: COc1cccc2cc(-c3nc([C@H]4CC[C@H](C(=O)O)CC4)n4ncnc(N)c34)[nH]c12 [OSI-027]
Summary of the method: as §1

Alpelisib = compound: Cc1nc(NC(=O)N2CCC[C@H]2C(N)=O)sc1-c1ccnc(C(C)(C)C(F)(F)F)c1 [Alpelisib]
Summary of the method: as §1

Vemurafenib + Bortezomib = compound: CCCS(=O)(=O)Nc1ccc(F)c(C(=O)c2c[nH]c3ncc(-c4ccc(Cl)cc4)cc23)c1F [Vemurafenib] + CC(C)C[C@H](NC(=O)[C@H](Cc1ccccc1)NC(=O)c1cnccn1)B(O)O [Bortezomib] (partner 0.002 µM)
Summary of the method: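 For relative viability, nuclei counts in treated wells were divided by those in vehicle wells. Lung cancer cell lines had been pin-tool dosed in 1536-well plates the day after seeding and cultured for 5 days, then fixed and stained in one step (final 0.05% Triton X-100, 1% formaldehyde, 1 ug/ml Hoechst) and imaged at 4×. Doses were one drug alone or a fixed anchor-drug dose plus five library-drug doses (not always all listed) in √10 steps, and values are duplicate-plate medians.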

| Cell Line | relative viability (Vemurafenib; 0.03162 µM) | relative viability (Vemurafenib; 0.1 µM) | relative viability (Vemurafenib; 0.3162 µM) | relative viability (Vemurafenib; 1 µM) | relative viability (OSI-027; 0.01 µM) | relative viability (OSI-027; 0.03162 µM) | relative viability (OSI-027; 0.1 µM) | relative viability (OSI-027; 0.3162 µM) | relative viability (OSI-027; 0.5 µM, anchor plate) | relative viability (OSI-027; 1 µM) | relative viability (Alpelisib; 0.04 µM) | relative viability (Alpelisib; 0.1265 µM) | relative viability (Alpelisib; 0.4 µM) | relative viability (Alpelisib; 1.265 µM) | relative viability (Alpelisib; 2 µM, anchor plate) | relative viability (Alpelisib; 4 µM) | relative viability (Vemurafenib + Bortezomib; first compound 0.03162 µM) | relative viability (Vemurafenib + Bortezomib; first compound 0.1 µM) | relative viability (Vemurafenib + Bortezomib; first compound 0.3162 µM) | relative viability (Vemurafenib + Bortezomib; first compound 1 µM) |
| --- | --- | --- | --- | --- | --- | --- | --- | --- | --- | --- | --- | --- | --- | --- | --- | --- | --- | --- | --- | --- |
| NCI-H460 | 0.983 | 1 | 0.87 | 0.975 | 1.03 | 0.973 | 1.01 | 0.917 | 0.701 | 0.704 | 0.989 | 1.02 | 1.05 | 0.949 | 0.536 | 0.757 | 0.982 | 1.1 | 0.932 | 1.04 |
| NCI-H520 | 0.944 | 0.944 | 1.08 | 0.924 | 1.15 | 0.972 | 0.73 | 0.628 | 0.261 | 0.34 | 0.891 | 0.935 | 1.11 | 0.725 | 0.945 | 0.503 | 0.46 | 0.487 | 0.722 | 0.454 |
| NCI-H596 | 0.842 | 0.914 | 0.83 | 0.828 | 0.971 | 0.927 | 0.889 | 0.959 | 0.704 | 0.723 | 0.94 | 1.01 | 0.968 | 0.52 | 0.478 | 0.567 | 1.05 | 0.896 | 0.802 | 1.05 |
| NCI-H647 | 0.913 | 0.925 | 0.655 | 0.942 | 0.943 | 0.889 | 0.892 | 0.705 | 0.654 | 0.427 | 0.917 | 0.925 | 1.06 | 0.757 | 1.18 | 0.832 | 0.881 | 0.96 | 0.739 | 0.874 |
| NCI-H650 | 0.882 | 0.965 | 0.413 | 0.628 | 0.862 | 0.999 | 0.732 | 0.701 | 0.532 | 0.403 | 0.877 | 0.825 | 0.96 | 0.752 | 1.14 | 0.738 | 0.668 | 0.899 | 0.443 | 0.423 |
| NCI-H661 | 0.975 | 0.929 | 1.02 | 0.971 | 0.977 | 0.952 | 0.958 | 0.95 | 0.735 | 0.581 | 0.973 | 1.02 | 1.01 | 0.924 | 0.719 | 0.909 | 0.877 | 0.663 | 0.765 | 0.778 |
| NCI-H727 | 1 | 0.802 | 1.2 | 0.908 | 0.849 | 0.884 | 0.893 | 0.769 | 0.624 | 0.712 | 0.904 | 0.894 | 0.893 | 0.789 | 0.586 | 0.565 | 0.927 | 0.812 | 1.35 | 0.54 |
| NCI-H838 | 0.924 | 0.988 | – | 1.03 | 0.93 | 0.898 | 0.782 | 0.607 | 0.404 | 0.408 | 0.863 | 0.921 | 0.933 | 0.706 | 1.03 | 0.689 | 0.707 | 0.723 | – | 1.15 |
